US10617734B2, “STAT3 and ERK signal pathway inhibitor comprising mogrosides and analogs thereof” (BEIJING UNIVERSITY OF AGRICULTURE, priority 2014, dated 2020)

How the values were obtained:
[1] = tested on: lymphoma U937 cells; assay: Cell apoptosis, Annexin V-FITC/PI, flow cytometer; type: cell-based; details: 10 μmol/L, 24 h
Description: (§1) Lymphoma U937 cells, human melanoma A875 cells and leukemia cells K562 in logarithmic growth phase were selected, and after the respective culture with 0 and 10 μmol/L of the mogrosides and analogs thereof (i.e. Mogroside I E1, Mogroside II A2 and mogrol) for 24 h, cells were collected and washed twice with 200 μl of cold PBS, and then the cells were collected again; 100 μl of binding buffer was added for re-suspending the cells, and after the addition of 2 μl of Annexin V-FITC and well mixing, the resulting mixture was placed in dark at room temperature for 10 min, and then 5 μl of propidium iodide (PI) was added and then well mixed; the mixture was placed in dark at room temperature for 10 min, and detected by flow cytometer, and the results are shown in FIGS. 13-15.

[2] = tested on: leukemia cells K562; assay: Cell apoptosis, Annexin V-FITC/PI, flow cytometer; type: cell-based, human; details: leukemia cells K562, 10 μmol/L, 24 h
Description: as §1

[3] = tested on: anti-apoptotic protein Bcl-2; assay: Western Blotting of Bcl-2 in K562 cells; type: cell-based, human; details: leukemia cells K562, 10 μmol/L, 24 h
Description: (§2) The STAT3 and ERK signal pathways can regulate cyclins and apoptosis genes, and in order to verify the effects of […] and mogrol, the expression status of downstream genes of STAT3 and ERK was detected, wherein the influences of the three mogrosides and analogs thereof, i.e. Mogrol I E1, Mogrol II A2 and mogrol, on Bcl-2 and P21 proteins in the histiocytic lymphoma U937 cells, human melanoma A875 cells and leukemia cells K562 were determined, respectively.
(§3) The regulation of Bcl-2 and P21 proteins by mogrosides and analog thereof to the was detected by Western Blotting, specifically: histiocytic lymphoma U937 cells, human melanoma A875 cells and leukemia cells K562 (1×10^6 cells/well) were inoculated into a 6-well culture plate overnight, and 0 and 10 μmol/L of the mogrosides and analogs thereof were added respectively, and kept cultured for 24 h. […]
(§4) The protein concentration was measured with bovine serum albumin (BSA) as the standard. 50 μg of the total proteins were separated by polyacrylamide gel electrophoresis with 12% SDS, and electrophoretically transferred to a PVDF membrane (polyvinylidene fluoride membrane), and blocked for 1 h by 5% of skim milk (containing 0.1% of Tween 20), and then antibodies P21, Bcl-2 and β-actin were added, wherein the primary antibody was incubated at 4° C. overnight (β-actin was used as reference loading amount); the membrane was washed for 3 times with TBS-T, 5 min each time; secondary antibody marked by horseradish peroxidase (HRP) was added for incubation at room temperature for 1 h, the membrane was washed with rinse solution (TBS-T) for 3 times, 10 min each time, and then ECL was added for incubation in dark for 5 min, and subsequently, a fluorescence imaging analyzer was used for image development and scanning analysis.

[4] = tested on: leukemia cells K562; assay: Cell cycle distribution, PI staining, flow cytometer; type: cell-based, human; details: leukemia cells K562, 10 μmol/L, 24 h
Description: (§5) The influences of Mogroside I E1, Mogroside II A2 and mogrol on the cell cycle distribution of the histiocytic lymphoma U937 cells, the human melanoma A875 cells and the leukemia cells K562.
(§6) The cell cycle arrest achieved by drugs is an important approach to the inhibition of cancer cell proliferation.

[5] = tested on: anti-apoptotic protein Bcl-2; assay: Western Blotting of Bcl-2 in U937 cells; type: cell-based; details: 10 μmol/L, 24 h
Description: as §2, §3, §4

[6] = tested on: anti-apoptotic protein Bcl-2; assay: Western Blotting of Bcl-2 in A875 cells; type: cell-based; details: human melanoma A875 cells, 10 μmol/L, 24 h
Description: as §2, §3, §4

[7] = tested on: cycle regulatory protein P21; assay: Western Blotting of P21 in A875 cells; type: cell-based; details: human melanoma A875 cells, 10 μmol/L, 24 h
Description: as §2, §3, §4

[8] = tested on: human melanoma A875 cells; assay: Cell apoptosis, Annexin V-FITC/PI, flow cytometer; type: cell-based; details: for cell apoptosis: 10 μmol/L, 24 h
Description: Mogroside I E1, Mogroside II A2 and mogrol) for 24 h, cells were collected and washed twice with 200 μl of cold PBS, and then the cells were collected again; 100 μl of binding buffer was added for re-suspending the cells, and after the addition of 2 μl of Annexin V-FITC and well mixing, the resulting mixture was placed in dark at room temperature for 10 min, and then 5 μl of propidium iodide (PI) was added and then well mixed; the mixture was placed in dark at room temperature for 10 min, and detected by flow cytometer, and the results are shown in FIGS. 13-15.

[9] = tested on: histiocytic lymphoma U937 cells; assay: Cell cycle distribution, PI staining, flow cytometer; type: cell-based; details: 24 h; for proportion of cells in G0/G1 phase with the rise of the concentration: U937 cells, 0, 1, 10, 150 and 250 μmol/L; for cell cycle distribution (proportion of cells of G0/G1 phase): U937 cells, 10 μmol/L
Description: as §5, §6

[10] = tested on: human melanoma A875 cells; assay: as above; type: cell-based; details: human melanoma A875 cells, 10 μmol/L, 24 h
Description: as §5, §6

[11] = tested on: leukemia cells K562; assay: Cell morphology, Hoechst 33258 staining, fluorescence microscope; type: cell-based, human; details: leukemia cells K562, 10, 100 and 250 μmol/L, 24-hour culture
Description: (§7) Lymphoma U937 cells, human melanoma A875 cells and leukemia cells K562 in logarithmic growth phase were selected, and the concentrations of the cells were adjusted to 1×10^4 cells/mL, and the cells were transferred to a 6-well plate for culture, and after the 24-hour culture, drugs were added to achieve final concentrations of 0, 10, 100 and 250 μmol/L, wherein only whole medium was added to the negative control groups, while Mogroside II A2 was added to the positive control groups, after 24-hour culture, waste solution was removed, and fixing solution was added to each well for fixing for 25 min, and then the resulting mixture was washed twice, 3 min each time, and then Hoechst 33258 staining solution was added for staining in dark at room temperature for 30 min, and the cell morphology variation was observed using a fluorescence microscope.

[12] = tested on: cycle regulatory protein P21; assay: Western Blotting of P21 in K562 cells; type: cell-based, human; details: leukemia cells K562, 10 μmol/L, 24 h
Description: as §2, §3, §4

[13] = tested on: cycle regulatory protein P21; assay: Western Blotting of P21 in U937 cells; type: cell-based; details: 10 μmol/L, 24 h
Description: as §2, §3, §4

[14] = tested on: human melanoma A875 cells; assay: Cell morphology, Hoechst 33258 staining, fluorescence microscope; type: cell-based; details: A875 melanoma cells, 10, 100 and 250 μmol/L, 24-hour culture
Description: as §7

[15] = tested on: lymphoma U937 cells; assay: as above; type: cell-based; details: lymphoma U937 cells, 10, 100 and 250 μmol/L, 24-hour culture
Description: as §7

Row | SMILES | cell apoptosis [1] | cell apoptosis [2] | expression of anti-apoptotic protein Bcl-2 [3] | cell cycle distribution (cell cycle arrest) [4] | expression of anti-apoptotic protein Bcl-2 [5] | expression of anti-apoptotic protein Bcl-2 [6] | expression of cycle regulatory protein P21 [7] | cell apoptosis [8] | proportion of cells in G0/G1 phase with the rise of the concentration [9] | cell cycle distribution (proportion of cells of G0/G1 phase) [9] | cell cycle distribution (proportion of cells in the G0/G1 phase) [10] | cell morphology variation (Hoechst 33258) [11] | expression of cycle regulatory protein P21 [12] | expression of cycle regulatory protein P21 [13] | cell morphology variation (Hoechst 33258) [14] | cell morphology variation (Hoechst 33258) [15] | amount for cell apoptosis with the rise of the concentration ([8]; different concentrations (FIG. 16))
1 | C[C@H](CC[C@@H](O)C(C)(C)O)[C@H]1CC[C@@]2(C)[C@H]3CC=C4[C@@H](CC[C@H](O[C@@H]5O[C@H](CO)[C@@H](O)[C@H](O)[C@H]5O)C4(C)C)[C@]3(C)C(O)C[C@]12C (stereo partly drawn) [Mogroside I E1] | induce the apoptosis | induce the apoptosis | significantly down-regulated | arrested | significantly down-regulated | significantly down-regulated | significantly up-regulated | induce the apoptosis | gradually increased | G0/G1 arrest | G0/G1 arrest | identical to the results of Mogroside II A2 | significantly up-regulated | significantly up-regulated | identical to the results of Mogroside II A2 | identical to the results of Mogroside II A2 | 
2 | C[C@H](CC[C@@H](O)C(C)(C)O)[C@H]1CC[C@@]2(C)[C@H]3CC=C4[C@@H](CC[C@H](O[C@@H]5O[C@H](CO[C@@H]6O[C@H](CO)[C@@H](O)[C@H](O)[C@H]6O)[C@@H](O)[C@H](O)[C@H]5O)C4(C)C)[C@]3(C)[C@H](O)C[C@]12C [Mogroside II A2] | induce the apoptosis | induce the apoptosis | significantly down-regulated | arrested | significantly down-regulated | significantly down-regulated | significantly up-regulated | induce the apoptosis | gradually increased | G0/G1 arrest | G0/G1 arrest | identical to the results of the human melanoma A875 cells | significantly up-regulated | significantly up-regulated | typical variation of cell apoptosis | identical to the results of the human melanoma A875 cells | the amount for cell apoptosis increases
